Assay results reported in PMC12040169 (PLOS Biology, 2025).

Assay: in vitro
Settings: human, hela cells, % viability

First: COc1ccc(Nc2ccc(-c3cccc(N(C)C)c3)cn2)cn1 [CBK037588]
Second: CN(C)c1cccc(-c2nc(-c3ccco3)cnc2N)c1 [CBK063970]
The viability at 28.5 h, 10 µM of the first is higher: 95.5% for the first, 89.2% for the second.

Compared with CN1CCC(Oc2nc3ccccc3nc2C(F)(F)F)CC1 [CBK113299], O=C1CCCN1CC(=O)N1CCCC1c1nc2ccccc2[nH]1 (centres unmarked) [CBK282315] is lower in viability at 28.5 h, 10 µM: 90.1% for the first, 86.3% for the second.

Going from Cn1ccnc1C1(O)CC2CCC(C1)N2C(=O)c1cccc(Cl)c1 (centres unmarked) [CBK284091] to O=C(CSc1ncccn1)Nc1cccc(Cl)c1 [CBK058217], the viability at 28.5 h, 10 µM rises from 86% to 87.6%.

Going from CN(CC1(C)COC1)C(=O)C(c1ccc(F)cc1)N(C)C (centres unmarked) [CBK281722] to Cc1ccnn1CCC(=O)NC1(c2ccc(F)cc2)CCCC1 [CBK283600], the viability at 28.5 h, 10 µM rises from 107% to 115%.

Compared with O=C(N[C@@H](Cn1cc(Cl)c(=O)[nH]c1=O)C(=O)O)c1cccc(F)c1 [CBK289650], Cn1ncc(N2CCC(CNC(=O)c3cc(F)ccc3Cl)C2)cc1=O (centres unmarked) [CBK307286] is lower in viability at 28.5 h, 10 µM: 118% for the first, 92.4% for the second.

Compared with CN(C)CCNc1ncnc2sc3c(c12)CCC3 [CBK265347], O=C1CCCN1CCCNc1ncnc2c1cnn2-c1ccc(Cl)cc1 [CBK265838] is higher in viability at 28.5 h, 10 µM: 69.5% for the first, 97.1% for the second.

First: c1ccc(Oc2cccc(C(N3CCOCC3)N3CCOCC3)c2)cc1 [CBK261798]
Second: O=CN1CCc2c([nH]c3ccccc23)C12CCCN(CCOc1ccccc1)C2 (centres unmarked) [CBK039412]
The viability at 28.5 h, 10 µM of the first is higher: 104% for the first, 93.3% for the second.

Compared with N#CCCN(CC1CCCO1)S(=O)(=O)c1ccc(OC(F)(F)F)cc1 (centres unmarked) [CBK044405], CC(=O)Nc1ccc(NCc2csc(C3CCCO3)n2)c(C(F)(F)F)c1 (centres unmarked) [CBK304161] is higher in viability at 28.5 h, 10 µM: 91.5% for the first, 101% for the second.

Going from COc1ccc2[nH]c3c(c2c1)CCN(C(C)=O)C31CCN(CCOc2ccccc2)C1 (centres unmarked) [CBK039626] to Fc1ccc2[nH]c3c(c2c1)CCN1C(c2ccccn2)N2CCC31CC2 (centres unmarked) [CBK284431], the viability at 28.5 h, 10 µM rises from 85.5% to 101%.

Compared with CC(C)(C)c1ccc(OCC(=O)Nn2cnnc2)cc1 [CBK027576], COc1ccc(NC(=O)CSc2ncnc3ccccc23)cc1 [CBK270215] is higher in viability at 28.5 h, 10 µM: 90.3% for the first, 94% for the second.

Compared with COc1cccc2cc(C(=O)NCCN3CCOCC3)oc12 [CBK149807], O=C(NCCCN1CCOCC1)Nc1cccc(Cl)c1Cl [CBK016286] is lower in viability at 28.5 h, 10 µM: 101% for the first, 85.5% for the second.

First: COc1ccccc1C(=O)Nc1ccc2nc(SCC(=O)NC3CC3)sc2c1 [CBK070791]
Second: CCCCOC(=O)c1ccc(NC(=O)c2cc(-c3ccco3)nc3c2c(C)nn3C)cc1 [CBK295313]
The viability at 28.5 h, 10 µM of the first is lower: 92.7% for the first, 103% for the second.

First: O=C(Cc1ccc(Cl)c(Cl)c1)N1CCCC2(CCN(C(=O)c3ccoc3)C2)C1 (centres unmarked) [CBK131619]
Second: CCC(=O)NC(=S)Nc1ccc(C(=O)N2CCCC2)cc1 [CBK288464]
The viability at 28.5 h, 10 µM of the first is lower: 87.4% for the first, 108% for the second.

Going from O=C(NCC1CCCN1)c1cnn(-c2ccc(Cl)cc2)c1C(F)(F)F (centres unmarked) [CBK115925C] to O=C(Nc1ccc(N2CCN(Cc3ccccc3)CC2)cc1)c1cncc(Br)c1 [CBK267093], the viability at 28.5 h, 10 µM falls from 101% to 85%.

Going from O=C(c1ccccc1)N1CCc2[nH]nc(-c3ccccc3)c2C1 [CBK287904] to CCCCCn1c(=O)c(Cc2ccccc2)c(O)c2ccccc21 [CBK291233], the viability at 28.5 h, 10 µM rises from 92.5% to 93.2%.

Going from Cc1ccc(/C=C(\NC(=O)c2ccccc2)C(=O)N2CCCC2C(=O)O)cc1 (centres unmarked) [CBK265649] to COc1ccc(-c2nn(-c3ccccc3)cc2/C=C2\SC(N3CCC(C(N)=O)CC3)=NC2=O)cc1 [CBK265178], the viability at 28.5 h, 10 µM rises from 87.6% to 105%.

First: O=C(C1CCC1)N1CCCC1c1nnc(-c2ccsc2)o1 (centres unmarked) [CBK283365]
Second: CC(C)N1CCC(CNC(=O)c2cc(C3CCCCC3)no2)CC1 [CBK283293]
The viability at 28.5 h, 10 µM of the first is higher: 101% for the first, 98.5% for the second.

Going from CN(C)c1nc(Cl)nc(N(C)C#N)n1 [CBK025922] to CCc1nnc(CN(C)Cc2c(C)nn(C)c2Cl)o1 [CBK304132], the viability at 28.5 h, 10 µM rises from 87.7% to 90.5%.

Compared with CCN(CC)C(=O)CN1CCC(Oc2cncc(OCC3COc4ccccc4O3)n2)C1 (centres unmarked) [CBK084374], CCc1nc2ccccc2n1CC(=O)N(CCC#N)Cc1cccnc1 [CBK304892] is lower in viability at 28.5 h, 10 µM: 102% for the first, 87.7% for the second.

Compared with Cc1ccc(CSCCNS(=O)(=O)c2ccc3ccccc3c2)cc1 [CBK268048], Cc1ccc(S(=O)(=O)NC(C)(C)CSc2ccccc2)cc1 [CBK268354] is lower in viability at 28.5 h, 10 µM: 107% for the first, 88.6% for the second.

First: OCCN1CC2(CCN(Cc3ccc4ccccc4c3)CC2)c2ccccc21 [CBK131529]
Second: COc1ccc(CN2CCC(Cc3ccccc3-c3cccc(F)c3)(C(N)=O)CC2)cc1 [CBK286277]
The viability at 28.5 h, 10 µM of the first is lower: 92.6% for the first, 99.8% for the second.

First: COc1ccc(OC(C)C(=O)Nc2ccc(C(=O)O)cc2)cc1 (centres unmarked) [CBK263622]
Second: CC(Oc1ccc(Cl)cc1Cl)C(=O)Nc1ccc(N2CCN(C)CC2)cc1 (centres unmarked) [CBK266780]
The viability at 28.5 h, 10 µM of the first is higher: 101% for the first, 94.1% for the second.

Going from CCOC(=O)CN(Cc1ccccc1)Cc1ccc(OC)cc1 [CBK126460] to COc1ccc(-c2ccc(CCC(=O)O)n2NC(N)=S)cc1 [CBK266018], the viability at 28.5 h, 10 µM falls from 103% to 102%.

Going from CC(C)(C)c1nsc(NC2CCCCCC2)n1 [CBK075061] to CC(C)(O)C1(C)OC(NC2C3CC4CC(C3)CC2C4)=NC1=O (centres unmarked) [CBK126370], the viability at 28.5 h, 10 µM falls from 96.6% to 91.2%.

First: CC(Oc1ccccc1)C(=O)Nc1nn(Cc2ccc(S(=O)(=O)N3CCCC3)cc2)c2ccccc12 (centres unmarked) [CBK061595]
Second: Cc1cccc(C(C)C)c1NC(=O)C1Cc2ccccc2CN1S(=O)(=O)c1ccc(F)cc1 (centres unmarked) [CBK267992]
The viability at 28.5 h, 10 µM of the first is higher: 102% for the first, 101% for the second.

Going from COc1cc(OC)c2nc(C(F)(F)F)cc(Cl)c2c1 [CBK006518] to Cc1[nH]nc(C(F)(F)F)c1Cl [CBK025387], the viability at 28.5 h, 10 µM rises from 83.1% to 113%.

First: CCCc1[nH]nc(O)c1C(=O)c1c(Cl)cccc1Cl [CBK093553]
Second: Cc1c(C(=O)NCc2cc(C3CC3)[nH]n2)[nH]c2c(Cl)cccc12 [CBK282533]
The viability at 28.5 h, 10 µM of the first is higher: 95.7% for the first, 70.2% for the second.

Going from NC(=O)COc1ccc(C2CC(=O)Nc3c(-c4cccc(F)c4)csc32)cc1 (centres unmarked) [CBK294441] to CSc1ccccc1NC(=O)CN(c1ccc(F)cc1)S(=O)(=O)c1ccc2c(c1)OCCO2 [CBK266836], the viability at 28.5 h, 10 µM rises from 99.6% to 101%.

First: COC(=O)c1cc(-c2ccccc2OCc2ccccc2)ccc1NC(=O)c1ccc(Cl)cc1Cl [CBK000415]
Second: O=C(Nc1cc(-c2nc3ncccc3o2)ccc1Cl)c1ccc2c(c1)OCCO2 [CBK264105]
The viability at 28.5 h, 10 µM of the first is lower: 88.5% for the first, 95% for the second.

First: Cc1cc(C(=O)NCc2ccc(C(=O)O)cc2)no1 [CBK268108]
Second: Cc1nc(-c2ccccc2)sc1CNC(=O)C1CC1C (centres unmarked) [CBK092369]
The viability at 28.5 h, 10 µM of the first is higher: 98.3% for the first, 97% for the second.

Going from CC(C)OC(=O)CCNC(=O)c1cccc(S(=O)(=O)N2CCCC2)c1 [CBK306090] to COC(=O)c1sccc1S(=O)(=O)N1CCN(c2ncnc3scc(C)c23)CC1 [CBK023600], the viability at 28.5 h, 10 µM rises from 91.1% to 94.2%.

Going from CCn1c(SC(C)C(N)=O)nc2ccc(Br)cc2c1=O (centres unmarked) [CBK306424] to CCCc1c(C)nc2ccc(C)cc2c1SCC(=O)O [CBK263537], the viability at 28.5 h, 10 µM rises from 74.6% to 88.6%.

Compared with CCCS(=O)(=O)n1ccn(-c2cccc(C(F)(F)F)c2)c1=O [CBK106585], CCCS(=O)(=O)Nc1ccc(=O)n2c1[C@@H]1C[C@@H](CN(C(=O)c3ccc(OC)cc3)C1)C2 [CBK288711] is lower in viability at 28.5 h, 10 µM: 88.3% for the first, 78.3% for the second.

Going from CC(=O)NC1=NC(=O)CN1C [CBK020181] to Cc1nc(S(=O)(=O)N2CCOC3(CCCC3)C2)cn1C [CBK304834], the viability at 28.5 h, 10 µM rises from 107% to 109%.

First: COc1ccc([N+](=O)[O-])cc1N1CCN(C(=O)OC(C)(C)C)CC1 [CBK003504]
Second: Cn1c(=O)c2[nH]c(N3CCN(c4cccc(O)c4)CC3)nc2n(C)c1=O [CBK269760]
The viability at 28.5 h, 10 µM of the first is lower: 92.3% for the first, 104% for the second.

Going from CN(C)C(=O)c1sc2ccccc2c1Cl [CBK067817] to CC[C@H](Cn1c(=O)oc2ccccc21)NC(=O)Cc1cccs1 [CBK284537], the viability at 28.5 h, 10 µM rises from 82.4% to 84.7%.

First: COc1ccc(C(NC(C)=O)c2nccc3cc(OC)c(OC)cc23)cc1OC (centres unmarked) [CBK270219]
Second: C#CCN1CC[C@]2(c3ccc(OC)c(OC)c3)CC[C@@H](NC(=O)Nc3ccc(F)c(F)c3)C[C@H]12 [CBK056657]
The viability at 28.5 h, 10 µM of the first is lower: 94.6% for the first, 104% for the second.

Going from OC1(c2ccc(F)cc2)CCC2CN(CC3CC3)CC21 (centres unmarked) [CBK283105] to CCn1c(CN2CCCC2c2nc(N(C)C)ncc2-c2ccc(F)cc2)nc2ccccc21 (centres unmarked) [CBK285974], the viability at 28.5 h, 10 µM rises from 88.9% to 94.9%.

First: Cc1cc(=O)c(O)c(CN2CCC(C(=O)O)CC2)o1 [CBK286843]
Second: CCc1cc2c(=O)c(-c3nc(C)cs3)c(CCCC(=O)O)oc2cc1O [CBK264834]
The viability at 28.5 h, 10 µM of the first is lower: 87.6% for the first, 101% for the second.

First: CS(=O)(=O)c1ccc(-c2ccc3c(c2)COC(C2CCN(C(=O)c4ccccc4O)CC2)O3)cc1 (centres unmarked) [CBK158682]
Second: CC(=O)N1CCc2ccc(S(=O)(=O)n3ccc4c(N5CCNCC5)cccc43)cc2C1 [CBK001632C]
The viability at 28.5 h, 10 µM of the first is lower: 85.3% for the first, 101% for the second.

Compared with O=C(Nc1cccc(-c2nc3ncccc3o2)c1)c1cccnc1Cl [CBK058695], O=C(NCCCO)Nc1ccc2nc(-c3ccco3)c(-c3ccco3)nc2c1 [CBK265161] is higher in viability at 28.5 h, 10 µM: 92% for the first, 92.4% for the second.

Going from CSc1ncc(CNCc2ccc3c(c2)OCO3)c(N)n1 [CBK074563] to Nc1nc(CCC(=O)N2CCCC(c3cc(O)ncn3)C2)cs1 (centres unmarked) [CBK306976], the viability at 28.5 h, 10 µM falls from 89.6% to 89.5%.

Compared with Cc1cc(C[C@@H]2CCC[C@H]2NCc2c(C)nn(C(C)C)c2C)on1 [CBK285453], CC(C)N(C)C(=O)Cc1csc(N)n1 [CBK014608] is higher in viability at 28.5 h, 10 µM: 98.3% for the first, 100% for the second.

Same assay, conditions: human, hela cells, % viability, bulk resorufin, single well

Going from NS(=O)(=O)c1ccc(-c2ccc(/C=C3\C(=O)NC(=O)N(c4ccc(Br)cc4)C3=O)o2)cc1 [CBK263423] to COc1ccc(CCNCc2cccc(Cl)c2)cc1 [CBK058787], the viability at 28.5 h, 10 µM falls from 93.2% to 90%.

With NC(=O)C1=CN([C@@H]2O[C@H](CO)[C@H](O)C2O)C2N=CN=C(N)C12 (some centres unmarked) [CBK201209] the viability at 28.5 h, 10 µM was 0.996%.
